Data published in article PMC5355811 (Nature Communications, 2017).
Read-outs that look alike come from different tables or passages of the source.

Experiments:
[1] = system: Ba/F3 cells expressing EGFR-T790M/del19; assay: CellTiter-Glo cell viability assay, Ba/F3 EGFR-T790M/del19; type: cell-based; settings: Mus musculus
Experimental: (§1) Three-day cell viability assays were carried out by plating 2,000, 1,500 and 2,000 cells per well of Ba/F3, PC9 or MGH121, respectively, into black transparent-bottom 96-well plates. On the same day for Ba/F3 cells and the following day for PC9 and MGH121 cells, the cells were treated with each TKI across a 10-dose range from 0.3 nmol l^−1 to 10 μmol l^−1. After 72 h of drug treatment, cell viability was measured using the CellTiter-Glo assay (Promega).

[2] = system: Ba/F3 cells expressing EGFR-L858R; assay: CellTiter-Glo cell viability assay, Ba/F3 EGFR-L858R; type: cell-based; settings: read-out: IC50, Ba/F3 L858R
Experimental: as §1

[3] = system: Ba/F3 cells of EGFR-del19; assay: Drug sensitivity screening at 100 nM, Ba/F3 EGFR-del19; type: cell-based; settings: for Relative cell viability (% of DMSO control) in del19 Ba/F3 cells: 100 nM; for viability at 0.1 µM: Mus musculus, BaF3, 72 h, read-out: Relative cell viability (ratio to DMSO control), del19
Experimental: (§2) After the incubation, cell viability was measured using CellTiter-Glo assay. The relative cell viability was calculated as a ratio of each value to that of the DMSO control.

[4] = system: Ba/F3 cells expressing EGFR-C797S/T790M/L858R; assay: CellTiter-Glo cell viability assay, Ba/F3 EGFR-C797S/T790M/L858R; type: cell-based; settings: Mus musculus, BaF3; Supplementary Fig. 8e; 72 h
Experimental: as §1

[5] = system: Ba/F3 cells of EGFR-C797S/T790M/del19; assay: Drug sensitivity screening at 100 nM, Ba/F3 EGFR-C797S/T790M/del19; type: cell-based; settings: Mus musculus; for viability at 0.1 µM: BaF3, 72 h, 100 nM inhibitor, 72 h, DMSO = 100, mean of three independent experiments (Fig. 1a data)
Experimental: as §2

[6] = system: PC9 parent cells (del19); assay: CellTiter-Glo cell viability assay, PC9 parent; type: cell-based; settings: read-out: IC50, PC9 parent
Experimental: as §1

[7] = system: Ba/F3 cells of EGFR-T790M/del19; assay: Drug sensitivity screening at 100 nM, Ba/F3 EGFR-T790M/del19; type: cell-based; settings: for Relative cell viability (% of DMSO control): 100 nM; for viability at 0.1 µM: Mus musculus, BaF3, 72 h, read-out: Relative cell viability (ratio to DMSO control), del19/T790M
Experimental: as §2

[8] = system: PC9 triple-mutant cells (C797S/T790M/del19); assay: CellTiter-Glo cell viability assay, PC9 triple mutant; type: cell-based; settings: read-out: IC50, PC9 triple
Experimental: as §1

[9] = system: Ba/F3 cells expressing EGFR-del19; assay: CellTiter-Glo cell viability assay, Ba/F3 EGFR-del19; type: cell-based; settings: Mus musculus
Experimental: as §1

[10] = system: EGFR phosphorylation in PC9 triple-mutant cells; assay: Western blotting of EGFR signalling, PC9 triple mutant; type: cell-based
Experimental: (§3) Tumour tissues or cells grown under the specified conditions were washed with cold PBS before addition of the SDS lysis buffer (100 mM Tris, 1% SDS, 10% glycerol). Lysates were transferred to microtubes, boiled for 5 min at 100 °C and then vortexed. Protein quantification was performed using the BCA Protein Assay Reagent (Pierce) according to the manufacturer's protocol. Western blot analyses were conducted after separation by SDS-PAGE and transferred to polyvinylidene difluoride membranes.

[11] = system: Ba/F3 cells expressing EGFR-C797S/T790M/del19; assay: CellTiter-Glo cell viability assay, Ba/F3 EGFR-C797S/T790M/del19; type: cell-based; settings: Mus musculus, BaF3, 72 h, Fig. 3b,c; 72 h
Experimental: as §1

[12] = system: PC9 T790M cells (T790M/del19); assay: CellTiter-Glo cell viability assay, PC9 T790M; type: cell-based; settings: read-out: IC50, PC9 T790M
Experimental: as §1

[13] = system: Ba/F3 cells expressing EGFR-T790M/L858R; assay: CellTiter-Glo cell viability assay, Ba/F3 EGFR-T790M/L858R; type: cell-based; settings: Mus musculus, BaF3; Supplementary Fig. 8e; 72 h; read-out: IC50, Ba/F3 T790M/L858R
Experimental: as §1

[14] = system: MGH121-res2 (C797S/T790M/del19) xenograft; assay: MGH121-res2 xenograft; type: in vivo; settings: brigatinib 75 mg kg^−1 po; cetuximab 1 mg per mouse two times a week
Experimental: (a,b) MGH121-res2 expressing EGFR-C797S/T790M/del19 were subcutaneously implanted into SCID-beige mice. […] Tumour volume (V) was calculated as 0.5 × length × width^2, and the body weights (B.W.) of the mice were measured twice weekly. N=6. Results are expressed as mean±s.d.

[15] = target: EGFR-C797S/T790M/L858R (Homo sapiens, UniProt P00533, C797S/L858R/T790M); settings: inhibition curves shifted with ATP concentration, triple-mutant and wild-type EGFR
Sequence of EGFR-C797S/T790M/L858R (P00533 712-979 T790M/C797S/L858R): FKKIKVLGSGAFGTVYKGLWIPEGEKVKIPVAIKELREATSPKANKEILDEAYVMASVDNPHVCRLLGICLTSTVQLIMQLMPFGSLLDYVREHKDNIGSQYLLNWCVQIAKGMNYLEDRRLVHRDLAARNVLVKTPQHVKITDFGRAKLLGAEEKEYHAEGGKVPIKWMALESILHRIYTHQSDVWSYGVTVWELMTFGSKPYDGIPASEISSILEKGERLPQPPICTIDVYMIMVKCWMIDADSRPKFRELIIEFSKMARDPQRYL
Experimental: The appropriate amount of target proteins calculated on the basis of the ADP-Glo assay manufacturer's protocol was incubated in 96-well half area white plates with serially diluted inhibitor over a 10-dose range from 0.0002, nM to 10 μM for 10 min at room temperature. ATP at concentration of 1, 10, 100 and 1,000 nM was mixed with 100 μg ml^−1 substrate and added to a kinase protein–inhibitor mixture, and then incubated for 60 min at room temperature. After the kinase reaction, an equal volume of ADP-Glo Reagent was added to terminate the kinase reaction, and the remaining ATP was depleted. The Kinase Detection Reagent was added both to convert ADP to ATP and to allow the newly synthesized ATP to be measured using the luciferase/luciferin reaction. The light generated was measured using a luminometer.

[16] = system: PC9-T790M (T790M/del19) xenograft; assay: PC9-T790M xenograft; type: in vivo, Balb-c nu/nu mice; settings: osimertinib 50 mg kg^−1, brigatinib 75 mg kg^−1
Experimental: (§4) Tumour growth was monitored twice weekly by bilateral caliper measurement, and tumour volume was calculated as 0.5 × length × width × width (mm^3). […] The mice whose implanted tumour size was ranked in the top 5% and bottom 5% were excluded from randomization to minimize the variation of tumour sizes. The mice were treated once daily by oral gavage for the indicated period. Relative tumour volume was calculated by dividing by the tumour volume on day 0. The body weights of the mice were measured twice weekly. Implanted tumours were resected from the mice on day 15 of drug treatment and were fixed with formalin. The mice were euthanized when the tumour size exceeded 700 mm^3 within several days. The investigators performing tumour measurements were not blinded to treatment groups. The sample size (minimum n=6 per treatment group) was selected to ensure satisfactory inter-animal reproducibility. The Mann–Whitney U test was used for the statistical analysis of the mice experiments.

[17] = system: PC9-triple mutant (C797S/T790M/del19) xenograft; settings: for tumour growth, PC9 triple-mutant xenograft: osimertinib 50 mg kg^−1, brigatinib 75 mg kg^−1 once daily oral, cetuximab 1 mg per mouse three times a week, panitumumab 0.5 mg per mouse two times a week
Experimental: as §4

[18] = system: cell surface EGFR in PC9 triple-mutant cells; assay: Flow cytometry of cell surface EGFR; type: cell-based; settings: 0, 6, 24 and 48 h
[19] = system: EGFR-mutated lung cancer; settings: patients with EGFR-mutated lung cancer, phase 1/2 trial; cited from earlier work
[20] = system: A431, A549 and H460 cells; assay: CellTiter-Glo cell viability assay, non-EGFR-mutated cell lines; type: cell-based; settings: A431 (EGFR amplification), A549 and H460 (KRAS mutation); 72 h
[21] = 180 mg per day, cited from earlier work
[22] = system: MGH121-res2 cells (C797S/T790M/del19); assay: cells; type: cell-based; settings: Homo sapiens, read-out: IC50, MGH121-res2
Experimental: as §1

[23] = system: MGH121 parental cells (T790M/del19); assay: cells; type: cell-based; settings: Homo sapiens, read-out: IC50, MGH121-pt
Experimental: as §1

[24] = system: phosphorylation of EGFR in Ba/F3 cells expressing EGFR-C797S/T790M/del19; assay: Western blotting of EGFR signalling, Ba/F3 triple-del19; type: cell-based; settings: 6 h
Experimental: as §3

[25] = system: confirmed EGFR T790M; design: method as in PMID 25923549; settings: 127 patients with confirmed EGFR T790M, phase 1/2 trial; cited from earlier work
[26] = 100 nM inhibitor, 72 h, DMSO = 100, mean of three independent experiments (Fig. 1a data)

## COc1cc(N2CCC(N)CC2)ccc1Nc1ncc(Cl)c(-c2c[nH]c3ccccc23)n1 [AZD3463]
[1]; BaF3, Fig. 3c, 72 h, read-out: IC50, Ba/F3 T790M/del19
  IC50: 0.175 µM
[2]; Mus musculus, BaF3, Supplementary Fig. 8e, 72 h
  IC50: 0.287 µM
[3]; 72 h, DMSO = 100, experiment 1
  Relative cell viability (% of DMSO control) in del19 Ba/F3 cells: 35.8012
[3]; 72 h, DMSO = 100, experiment 2
  Relative cell viability (% of DMSO control) in del19 Ba/F3 cells: 31.981
[3]; 72 h, DMSO = 100, experiment 3
  Relative cell viability (% of DMSO control) in del19 Ba/F3 cells: 37.0414
[3]; [26]
  viability at 0.1 µM: 34.9%
[4]
  IC50: 0.168 µM
[5]
  viability at 0.1 µM: 89.3%
[6]; Table 1d, ALK–TKIs, 72 h
  IC50: 0.253 µM
[7]; 72 h, DMSO = 100, experiment 1
  Relative cell viability (% of DMSO control): 78.5876
[7]; 72 h, DMSO = 100, experiment 2
  Relative cell viability (% of DMSO control): 91.5008
[7]; 72 h, DMSO = 100, experiment 3
  Relative cell viability (% of DMSO control): 89.0461
[7]; [26]
  viability at 0.1 µM: 86.4%
[8]; Table 1d, ALK–TKIs, 72 h
  IC50: 0.622 µM
[9]; BaF3, Fig. 3c, 72 h, read-out: IC50, Ba/F3 Del19
  IC50: 0.09 µM
[10]
  EGFR phosphorylation and downstream signalling, PC9 triple-mutant cells: mild activity
[11]
  IC50: 0.132 µM
[12]; Table 1d, ALK–TKIs, 72 h
  IC50: 0.378 µM
[13]
  IC50: 0.184 µM

## COc1cc(N2CCC(N3CCN(C)CC3)CC2)ccc1Nc1ncc(Cl)c(Nc2ccccc2P(C)(C)=O)n1 [Brigatinib, brigatinib]
[1]; BaF3, 72 h, read-out: IC50, Ba/F3 T790M/del19
  IC50: 0.15 µM
[1]; BaF3, read-out: IC50, Ba/F3 T790M/del19
  IC50: 0.12 µM
[2]; Mus musculus, BaF3, 72 h
  IC50: 0.207 µM
[2]
  IC50: 0.133 µM
[14]
  tumour growth, MGH121-res2 xenograft: growth inhibition effect
[3]; [26]
  viability at 0.1 µM: 10.3%
[15]
  mode of EGFR kinase inhibition: competitively affected the ATP-binding site of the EGFR kinase domain
[16]
  tumour growth, T790M/del19-expressing PC9 xenograft: successfully suppressed the growth
[5]
  viability at 0.1 µM: 59.2%
[5]; BaF3, at 100 nM, read-out: growth inhibition against EGFR-triple-del19
  inhibition at 0.1 µM: ~50%
[6]
  IC50: 0.133 µM
[17]; body weight, brigatinib 75 mg kg^−1 daily, with or without cetuximab
  toxicity, PC9 triple-mutant xenograft-bearing mice: without explicit toxicity
[17]
  tumour growth, PC9 triple-mutant xenograft: significant inhibition of the growth of PC9-triple mutant cells
[17]; western blotting of PC9-triple mutant tumours from mice
  phosphorylation of EGFR and downstream signalling in tumour samples: actually inhibited
[7]; [26]
  viability at 0.1 µM: 69.2%
[8]
  IC50: 0.599 µM
[9]; BaF3, 72 h, read-out: IC50, Ba/F3 Del19
  IC50: 0.0437 µM
[9]; BaF3, read-out: IC50, Ba/F3 del19
  IC50: 0.0394 µM
[10]
  EGFR phosphorylation and downstream signalling, PC9 triple-mutant cells: inhibited EGFR phosphorylation and its downstream signalling
[18]
  cell surface EGFR level: no reduction
[19]
  cases that achieved partial response: two of 42 cases
[20]
  inhibitory activity (IC50) in cell lines without EGFR mutation: less inhibitory activity to the cell lines without EGFR mutation than afatinib and osimertinib
[21]; ref 48
  plasma concentration in a steady state: 1,694.3 nM
[21]; ref 49
  plasma concentration in a steady state: 1,447 nM
[22]; MGH121, 72 h
  IC50: 0.592 µM
[23]; MGH121, 72 h
  IC50: 0.155 µM
[12]
  IC50: 0.244 µM
[24]
  phosphorylation of EGFR and downstream signalling, Ba/F3 triple-del19: decreased phosphorylation of EGFR and its downstream signalling pathway in a dose-dependent manner

## C=CC(=O)Nc1cc(Nc2nccc(-c3cn(C)c4ccccc34)n2)c(OC)cc1N(C)CCN(C)C [Osimertinib, osimertinib]
[3]
  viability at 0.1 µM: 1.58%
[16]
  tumour growth, T790M/del19-expressing PC9 xenograft: successfully suppressed the growth
[6]; Table 1c, EGFR–TKIs, 72 h
  IC50: 0.00746 µM
[17]
  tumour growth, PC9 triple-mutant xenograft: without any superiority to control group
[7]
  viability at 0.1 µM: 7.61%
[8]; Table 1c, EGFR–TKIs, 72 h
  IC50: 3.46 µM
[10]
  EGFR phosphorylation and downstream signalling, PC9 triple-mutant cells: No reduction of the signal pathway
[25]
  median progression-free survival: 9.6 months
  response rate: 61%
[22]; MGH121, Table 1e, 72 h
  IC50: 7.16 µM
[23]; MGH121, Table 1e, 72 h
  IC50: 0.00258 µM
[12]; Table 1c, EGFR–TKIs, 72 h
  IC50: 0.0113 µM
[24]
  phosphorylation of EGFR and downstream signalling, Ba/F3 triple-del19: lack of inhibition of EGFR phosphorylation

## Cc1ccc(C(=O)Nc2ccc(CN3CCN(C)CC3)c(C(F)(F)F)c2)cc1C#Cc1cnc2cccnn12 [Ponatinib, ponatinib]
[3]
  viability at 0.1 µM: 40.6%
[5]; BaF3, read-out: growth inhibition against EGFR-triple-del19
  inhibition at 0.1 µM: ~50%
[7]
  viability at 0.1 µM: 53.5%
[9]; BaF3, 72 h, read-out: IC50, Ba/F3 del19
  IC50: 0.127 µM
[24]
  phosphorylation of EGFR and downstream signalling, Ba/F3 triple-del19: no inhibitory activity
